The numbers were not newly measured in patent US20200206183A1, “SYSTEMS, METHODS, AND FORMULATIONS FOR TREATING CANCER” (Research Cancer Institute of America, priority 2011, published 2020), which cites them from elsewhere.

Data set [1] has as its system patients who had cancer deemed no longer treatable by conventional methods.
For the next data set, the system named is tyrosine kinase. The note with it: measured in 11 subjects.

For `O=c1c(O)c(-c2ccc(O)c(O)c2)oc2cc(O)cc(O)c12` [quercetin], the “Dose concluded for further study” value in data set [1] (intravenous) is ≤ 1400 mg/m2. For the same molecule, in data set [1] (up to 1700 mg/m2 intravenous for about 3 weeks, 50 patients), the “Suppression as defined by the radiological criteria of WHO” value is listed as “None of the patients achieved suppression”. Further, the “Patients with sustained decreases in unique cancer markers” value in data set [1] (up to 1700 mg/m2 intravenous, 50 patients) was “two showed sustained decreases”. The “Subjects with a decrease in tyrosine kinase levels” value with tyrosine kinase is listed as 9 subjects.
Turning to sodium phenylbutyrate [SPB], the Toxicity result in the data set on patients (oral doses up to 36 grams per day) is recorded as “minimal toxicity”. Besides, the “Patients with stable disease” value in the data set on patients (stable disease for more than 6 months while on the drug, one study) is given as 25%.
